# PMC9127750, “Structure-based design of CDC42 effector interaction inhibitors for the treatment of cancer” (Cell reports, 2022)
# Tested on: WM3248 melanoma cells, 486 antibodies
# Assay: Reverse phase protein arrays (RPPA);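 as to RPPA ACC1.R.C: ratio of treated to vehicle (0 µM) normalized linear protein signal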;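 as to RPPA AMPK.a2 pS345.R.V: ratio of treated to vehicle (0 µM) normalized linear protein signal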;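 as to RPPA AMPKa pT172.R.C: ratio of treated to vehicle (0 µM) normalized linear protein signal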;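 as to RPPA ASNS.R.V: ratio of treated to vehicle (0 µM) normalized linear protein signal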;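 as to RPPA Akt1.R.V: ratio of treated to vehicle (0 µM) normalized linear protein signal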;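 as to RPPA Atg5.R.C: ratio of treated to vehicle (0 µM) normalized linear protein signal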;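 as to RPPA Bim.R.V: ratio of treated to vehicle (0 µM) normalized linear protein signal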
# Type: cell-based, Human
# Conditions: 10 uM
# From the text: Pellets were snap frozen in liquid nitrogen and shipped to MD Anderson Cancer Center core RPPA facility for RPPA analysis (Table S5). Three biological replicates for each sample were generated.
# Nomenclatures on the RPPA heatmaps: name_of_antibody.species_of_antibody.status_of_antibody. V - antibody validated; C - validation of antibody in progress; Q - antibody nonspecific; E – under evaluation; antibodies raised in M - mouse, G - goat, R - rabbit, or T - rat.
smiles,measurement,setting,value
"CN(C)c1cccc(Nc2cc(-c3ccccc3)nc(C3CCNCC3)n2)c1 [ARN22089, N1,N1-dimethyl-N3-(6-phenyl-2-(piperidin-4-yl)pyrimidin-4-yl)benzene-1,3-diamine]",RPPA level MTCO1.M.V,Average,0.952
same,RPPA level Mcl.1.R.V,Average,0.908
same,RPPA level MelanA.R.C,Average,0.925
same,RPPA level Merlin.R.C,Average,0.993
same,RPPA level Midkine.R.V,Average,1.001
same,RPPA level Mitofusin.1.R.V,Average,0.993
same,RPPA level Mitofusin.2.R.V,Average,0.945
same,RPPA level Mnk1.R.V,Average,0.956
same,RPPA level mTOR.R.V,Average,0.929
same,RPPA level mTOR_pS2448.R.C,Average,0.962
same,c.Jun_pS73.R.V RPPA level,Average,1.013
same,c.Kit.R.V RPPA level,Average,1.031
same,c.Met_pY1234_Y1235.R.V RPPA level,Average,0.982
same,c.Myc.R.C RPPA level,Average,1.334
same,cGAS.R.V RPPA level,Average,1.114
same,cdc2_pY15.R.C RPPA level,Average,0.967
same,cdc25C.R.V RPPA level,Average,0.900
same,RPPA A.Raf.R.V,C.1,0.924
same,RPPA A.Raf_pS299.R.C,C.1,1.052
same,RPPA ACC1.R.C,C.1,0.932
same,RPPA ACC_pS79.R.V,C.1,1.211
same,RPPA ACLY_pS455.R.V,C.1,1.216
same,RPPA ACVRL1.R.C,C.1,1.064
same,RPPA ADAR1.M.V,C.1,1.080
same,RPPA ALKBH5.R.V,C.1,1.056
same,RPPA AMPK.a2_pS345.R.V,C.1,0.962
same,RPPA AMPKa.R.C,C.1,0.981
same,RPPA AMPKa_pT172.R.C,C.1,2.354
same,RPPA AR.R.V,C.1,0.957
same,RPPA ARID1A.R.C,C.1,1.055
same,RPPA ASNS.R.V,C.1,0.968
same,RPPA ATM.R.V,C.1,0.876
same,RPPA ATM_pS1981.R.V,C.1,1.025
same,RPPA ATP5A.M.C,C.1,1.084
same,RPPA ATP5H.R.V,C.1,1.134
same,RPPA ATRX.R.C,C.1,0.823
same,RPPA AceCS1.R.V,C.1,1.056
same,RPPA Akt1.R.V,C.1,0.796
same,RPPA Akt1_pS473.R.V,C.1,0.792
same,RPPA Akt2.R.V,C.1,0.881
same,RPPA Akt2_pS474.R.C,C.1,0.939
same,RPPA Akt.R.V,C.1,0.872
same,RPPA Akt_pS473.R.V,C.1,0.917
same,RPPA Akt_pT308.R.V,C.1,0.810
same,RPPA Ambra1_pS52.R.C,C.1,1.060
same,RPPA Annexin.I.M.V,C.1,0.884
same,RPPA Annexin.VII.M.V,C.1,1.054
same,RPPA Atg3.R.V,C.1,0.850
same,RPPA Atg4B.R.C,C.1,0.734
same,RPPA Atg5.R.C,C.1,0.909
same,RPPA Atg7.R.V,C.1,0.713
same,RPPA Aurora.A.R.C,C.1,1.325
same,RPPA Aurora.ABC_pT288_pT232_pT198.R.C,C.1,1.697
same,RPPA Axl.R.V,C.1,0.673
same,RPPA B7.H3.R.C,C.1,0.862
same,RPPA B7.H4.R.C,C.1,0.874
same,RPPA B.Raf.R.C,C.1,0.709
same,RPPA B.Raf_pS445.R.V,C.1,0.874
same,RPPA BCL2A1.R.V,C.1,0.885
same,RPPA BMK1.Erk5_pT218_Y220.R.V,C.1,1.100
same,RPPA BRCA1.M.C,C.1,0.993
same,RPPA Bad_pS112.R.V,C.1,1.031
same,RPPA Bak.R.C,C.1,1.026
same,RPPA Bax.R.V,C.1,0.917
same,RPPA Bcl2.R.C,C.1,1.064
same,RPPA Bcl.xL.R.V,C.1,0.877
same,RPPA BiP.GRP78.M.C,C.1,0.971
same,RPPA Bid.R.C,C.1,0.858
same,RPPA Bim.R.V,C.1,0.886
same,RPPA X4E.BP1.R.V,C.1,1.220
same,RPPA X4E.BP1_pS65.R.V,C.1,0.985
same,RPPA X4E.BP1_pT37_T46.R.V,C.1,0.975
same,RPPA X14.3.3.zeta.R.V,C.1,1.026
same,RPPA X53BP1.R.V,C.1,0.922
same,RPPA b.Actin.R.C,C.1,0.996
same,RPPA b.Catenin_pT41_S45.R.V,C.1,0.984
same,RPPA c.Abl.R.V,C.1,1.031
same,RPPA c.Abl_pY412.R.C,C.1,0.928
same,RPPA c.IAP2.R.C,C.1,1.007
same,RPPA PREX1.R.V Average,average of 3,0.915
same,RPPA PTEN.R.V Average,average of 3,0.933
same,RPPA PTPN12.R.V Average,average of 3,0.962
same,RPPA PYGB.R.V Average,average of 3,1.021
same,RPPA PYGM.M.C Average,average of 3,1.025
same,RPPA Puma.R.C Average,average of 3,0.968
same,RPPA Pyk2_pY402.R.C Average,average of 3,0.960
same,RPPA RBM15.R.V Average,average of 3,0.873
same,RPPA RIP3.R.C Average,average of 3,0.948
same,RPPA RIP.R.C Average,average of 3,0.978
same,RPPA RPA32_pS4_S8.R.C Average,average of 3,1.083
same,RPPA RRM1.R.C Average,average of 3,0.916
same,RPPA RRM2.R.C Average,average of 3,0.917
same,RPPA RSK1.R.V Average,average of 3,0.967
same,RPPA RSK.R.C Average,average of 3,0.909
same,RPPA Rab11.R.C Average,average of 3,0.990
same,RPPA Rab25.R.V Average,average of 3,0.979
same,RPPA Rad17_pS645.R.V Average,average of 3,1.063
same,RPPA Rad23A.R.C Average,average of 3,0.920
same,RPPA Rad50.R.V Average,average of 3,0.991
same,RPPA Rad51.R.C Average,average of 3,1.083
same,RPPA Raptor.R.V Average,average of 3,0.939
same,RPPA Rb.M.Q Average,average of 3,1.024
same,RPPA Rb_pS807_S811.R.V Average,average of 3,0.952
same,RPPA Rheb.M.C Average,average of 3,1.056
same,RPPA Rictor.R.C Average,average of 3,0.955
same,RPPA Rictor_pT1135.R.V Average,average of 3,1.027
same,RPPA S6.M.V Average,average of 3,0.930
same,RPPA S6_pS235_S236.R.V Average,average of 3,0.713
same,RPPA S6_pS240_S244.R.V Average,average of 3,0.956
same,RPPA SCD.M.V Average,average of 3,1.034
same,RPPA SF2.R.V Average,average of 3,1.005
same,RPPA SFRP1.R.V Average,average of 3,0.965
same,RPPA SGK1.R.V Average,average of 3,1.012
same,RPPA SGK3.R.V Average,average of 3,1.035
same,RPPA SHP2.R.V Average,average of 3,1.004
same,RPPA SHP.2_pY542.R.C Average,average of 3,0.896
same,RPPA SIRPαR.V Average,average of 3,1.009
same,RPPA SLC1A5.R.C Average,average of 3,0.975
same,RPPA SOD1.M.V Average,average of 3,1.031
same,RPPA SOD2.R.V Average,average of 3,1.115
same,RPPA SOX7.R.V Average,average of 3,1.015
same,RPPA STING.R.V Average,average of 3,0.904
same,RPPA Shc_pY317.R.C Average,average of 3,1.847
same,RPPA Slfn11.G.C Average,average of 3,0.945
same,RPPA Smac.M.Q Average,average of 3,0.998
same,RPPA Smad1.R.V Average,average of 3,1.021
same,RPPA Smad3.R.V Average,average of 3,0.979
same,RPPA Snail.M.Q Average,average of 3,0.977
same,RPPA Sox2.R.V Average,average of 3,0.987
same,RPPA Sox17.R.V Average,average of 3,1.018
same,RPPA Src.M.V Average,average of 3,1.079
same,RPPA Src_pY416.R.V Average,average of 3,0.992
same,RPPA Src_pY527.R.V Average,average of 3,0.908
same,RPPA Stat1_pY701.R.V Average,average of 3,1.035
same,RPPA Stat3.R.C Average,average of 3,0.972
same,RPPA Stat3_pY705.R.C Average,average of 3,1.002
same,RPPA Stat5a.R.V Average,average of 3,0.958
same,RPPA TAZ.R.V Average,average of 3,0.958
same,RPPA TEAD.R.C Average,average of 3,0.967
same,RPPA TFAM.R.V Average,average of 3,0.914
same,RPPA TFRC.R.V Average,average of 3,0.926
same,RPPA TIGAR.R.V Average,average of 3,0.978
same,RPPA TRAP1.M.V Average,average of 3,1.032
same,RPPA TRIM25.R.C Average,average of 3,0.869
same,RPPA TRIP13.R.V Average,average of 3,1.026
same,RPPA Transglutaminase.M.V Average,average of 3,1.215
same,"RPPA signal, antibody TSC1.R.C, Average",average of 3 replicates,0.905
same,"RPPA signal, antibody TTF1.R.V, Average",average of 3 replicates,0.943
same,"RPPA signal, antibody TUFM.R.V, Average",average of 3 replicates,1.288
same,"RPPA signal, antibody Tuberin.R.V, Average",average of 3 replicates,0.933
same,"RPPA signal, antibody Tuberin_pT1462.R.V, Average",average of 3 replicates,1.050
same,"RPPA signal, antibody Twist.M.C, Average",average of 3 replicates,1.060
same,"RPPA signal, antibody Tyro3.R.V, Average",average of 3 replicates,1.231
same,"RPPA signal, antibody U.Histone.H2B.R.C, Average",average of 3 replicates,0.832
same,"RPPA signal, antibody UBAC1.R.V, Average",average of 3 replicates,0.948
same,"RPPA signal, antibody UBQLN4.M.C, Average",average of 3 replicates,0.975
same,"RPPA signal, antibody UGT1A.M.V, Average",average of 3 replicates,1.078
same,"RPPA signal, antibody ULK1_pS757.R.C, Average",average of 3 replicates,0.965
same,"RPPA signal, antibody UQCRC2.M.C, Average",average of 3 replicates,0.921
same,"RPPA signal, antibody UVRAG.R.C, Average",average of 3 replicates,0.967
same,"RPPA signal, antibody VASP.R.V, Average",average of 3 replicates,0.887
same,"RPPA signal, antibody VAV1.R.C, Average",average of 3 replicates,0.939
same,"RPPA signal, antibody VEGFR.2.R.V, Average",average of 3 replicates,0.919
